The record followed here is PubChem BioAssay AID1963848 (Molecular Pharmacology Branch, DTP, NCI, 2024).

This test relates to 379773-124-R-J2-PDC spheroid viability. The experiment in a line: Anticancer human tumor 379773-124-R-J2-PDC patient-derived endometrial carcinoma cell line growth inhibition [POLQ]. The note with it: spheroids with HUVEC and MSC; for viability, T/C: stronger effect = lower value. The procedure:
Multicellular complex tumor spheroid response to Polymerase (POL) inhibitors (novobiocin, ART-558, RP6685) in combination with a variety of drugs and investigational agents in selected tumor cell lines
The POL inhibitors (novobiocin, ART-558, and RP6685) were evaluated both individually and in combination with standard of care and investigational anticancer small molecules within a complex spheroid model of solid tumors. . Complex spheroids include a stromal component modeled by human endothelial cells (HUVEC) and fibroblasts modeled by human mesenchymal stem cells (MSCs). The concentration ranges selected for each drug and investigational agent were based upon clinically achievable concentrations if the clinical Cmax of the agent was known.
Compounds. The drugs and investigational agents: novobiocin (NSC847541), ART-558 (NSC835418), RP-6685 (NSC848927), peposertib (NSC802822), ceralasertib (NSC780249), elimusertib (NSC800525), camonsertib (NSC841442), AZD-1390 (NSC803789), olaparib (NSC753686), talazoparib (NSC767125), rucaparib (NSC756644), sotorasib (NSC818433), MRTX-1133 (NSC836407), SN-38 (NSC673596), topotecan (NSC609699), epotoside (NSC141540), doxorubicin (NSC123127), gemcitabine (NSC613327), 5-fluorouracil (NSC19893), paclitaxel (NSC125973), vemurafenib (NSC761431), MSA-2 (NSC828583), SN-011 (NSC837082), adavosertib (NSC754352), prexasertib (NSC758257), carboplatin (NSC241240) and oxaliplatin (NSC266046), were obtained from the National Cancer Institute (NCI) Developmental Therapeutics Program Chemical Repository (21). The FDA-approved anticancer drug set is available from the Developmental Therapeutics Program at https://dtp.cancer.gov/organization/dscb/obtaining/. […] The stock solutions were prepared in dimethyl sulfoxide (DMSO, Sigma-Aldrich, St. Louis, MO, cat. D2650), except for the platinum compounds which were prepared in saline (Quality Biological, Gaithersburg, MD, cat. 114-055-101), at 800-fold the tested concentration and stored at -70 degrees C prior to their use. All drugs and investigational agents were tested over a range starting from a high concentration at or near the clinical Cmax and decreasing in half-log increments. If the clinical Cmax for an agent had not been determined, the highest concentration tested was 10 microM, except for SN-38, which was tested at a high concentration of 1 microM.
Cell Culture. All cells were maintained in an incubator at 37 degrees C and 5% CO2 with 95% humidity. The PDC lines were cultured according to standard operating procedures established by the NCI PDMR (https://pdmr.cancer.gov). Table 3 of the manuscript, lists the cell lines along with the number of the three cell types plated to form the mct-spheroids and media for tumor cell growth. After thawing, all PDC lines, except 997537-175-T-J1-PDC and 415267-285-R-J2-PDC, were cultured in Matrigel-coated flasks prepared with a working solution of 1X Ham's F-12 nutrient mix, without supplementation (Thermo Fisher Scientific, cat. 11765054), 100 U/mL penicillin-streptomycin (Thermo Fisher Scientific, cat. 15140122), and 2.5% Matrigel (Corning Inc., Corning, NY, cat. 354248) for the first three passages. The two PDC lines 997537-175-T-J1-PDC and 415267-285-R-J2-PDC were cultured on uncoated flasks. The 857933-349-R-J2-PDC line was cultured in 6C/Colon 1B media containing advanced DMEM/F-12 (Thermo Fisher Scientific, cat. 12634028), 10 mM HEPES (Thermo Fisher Scientific, cat. 15630080), 1X GlutaMAX supplement (Thermo Fisher Scientific, cat. 35050061), 0.1 mg/mL primocin (InvivoGen, San Diego, CA, cat. ant-pm-2), 10% defined fetal bovine serum, heat inactivated (HyClone Laboratories Inc., Logan, UT, cat. SH30070.03HI), 50% L-WRN conditioned media (ATCC, cat. CRL-3276), 1.25 mM N-Acetyl-L-cysteine (Sigma-Aldrich, cat. A9165), 10 mM nicotinamide (Sigma-Aldrich, cat. N0636), 1X B-27 supplement (Thermo Fisher Scientific, cat. 17504044), 1X N-2 supplement (Thermo Fisher Scientific, cat. […]

Values joined by “and” are separate entries in the source; they are usually repeats but may differ in a detail not shown here. Equal entries are not always repeated.
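Note: spheroids exposed to drugs for seven days before readout.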
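Throughout, for viability, T/C: percent viability relative to DMSO vehicle control taken as 100%.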

Broadly, the viability, T/C is the result in the treated group divided by that in the control group, in per cent. For orientation: IC50 means the concentration at which inhibition is half-maximal. As to `C=CCn1c(=O)c2cnc(Nc3ccc(N4CCN(C)CC4)cc3)nc2n1-c1cccc(C(C)(C)O)n1`, the viability, T/C runs as follows: (compound 0.00316 µM) 95.2% and 88.4% and 90.7%; (compound 0.01 µM) 83.8% and 82.6% and 88.3%; (compound 0.0316 µM) 86.5% and 84.1% and 94.8%; (compound 0.1 µM) 91.2% and 98.4% and 89.9%; (compound 0.316 µM) 67.7% and 74.7% and 79.6%; (compound 1 µM) 2.93% and 2.98% and 6.11%. Further, the IC50 (curve of compound) is 434 nM and 470 nM and 503 nM.

Consider `CC(=O)O[C@H]1C(=O)[C@@]2(C)[C@H]([C@H](OC(=O)c3ccccc3)[C@]3(O)C[C@H](OC(=O)[C@H](O)[C@@H](NC(=O)c4ccccc4)c4ccccc4)C(C)=C1C3(C)C)[C@]1(OC(C)=O)CO[C@@H]1C[C@@H]2O`, for which the viability, T/C is, setting by setting: (compound 0.00949 µM) 21.2% and 20.1% and 16.9%; (compound 0.03 µM) 7.51% and 10.1% and 8.5%; (compound 0.0949 µM) 14.2% and 12.2% and 9.35%; (compound 0.3 µM) 10.6% and 11.8% and 8.52%; (compound 0.949 µM) 9.35% and 10.1% and 7.28%; (compound 3 µM) 7.9% and 9.86% and 6.94%. Moreover, where the note is “curve of compound”, the IC50 was less than 9.49 nM.

Consider `CC1COCCN1c1cc(-c2ccnn2C)c2ccnc(-c3ccn[nH]3)c2n1` (stereo unspecified), for which the viability, T/C is 75.5% and 78.8% and 88.4% (compound 0.0316 µM); 53.1% and 47.6% and 54.7% (compound 0.1 µM); 11.6% and 8.88% and 12.7% (compound 0.316 µM); 8.44% and 8.27% and 10.5% (compound 1 µM); 10.4% and 10.8% and 12.3% (compound 3.16 µM); 5.02% and 6.19% and 8.08% (compound 10 µM). For the same molecule, the IC50 (curve of compound) is 109 nM and 91.5 nM and 114 nM.

On to `CC1COCCN1c1cc(C2(S(C)(=N)=O)CC2)nc(-c2ccnc3[nH]ccc23)n1` (stereo unspecified), for which the viability, T/C (compound 0.0316 µM) is 78.3% and 87.6% and 81.5%; the viability, T/C (compound 0.1 µM) is 69.2% and 89.3% and 88.1%; the viability, T/C (compound 0.316 µM) was 71.7% and 86.7% and 72.9%; the viability, T/C (compound 1 µM) is 80.9% and 82.7% and 76.1%; the viability, T/C (compound 3.16 µM) was 34.5% and 44.9% and 28.5%; the viability, T/C (compound 10 µM) was 5.53% and 11.9% and 6.3%. The half-inhibitory concentration (IC50) (curve of compound) is 2040 nM and 2710 nM and 1870 nM.

As to `CCCS(=O)(=O)Nc1ccc(F)c(C(=O)c2c[nH]c3ncc(-c4ccc(Cl)cc4)cc23)c1F`, the viability, T/C (compound 0.0316 µM) is 95.9% and 86.2% and 78.9%; the viability, T/C (compound 0.1 µM) was 93.8% and 93.3% and 98.6%; the viability, T/C (compound 0.316 µM) is 87.6% and 96.1% and 91.3%; the viability, T/C (compound 1 µM) was 87% and 91% and 69%; the viability, T/C (compound 3.16 µM) was 84.2% and 84% and 74.1%; the viability, T/C (compound 10 µM) is 57.6% and 51.9% and 57.4%. Also, the 50% inhibitory concentration (IC50) (curve of compound) was more than 10000 nM.

In the case of `CC[C@@]1(O)C(=O)OCc2c1cc1n(c2=O)Cc2cc3c(CN(C)C)c(O)ccc3nc2-1`, the viability, T/C was 86.7% and 95.5% and 87.2% (compound 0.000316 µM); 82.9% and 87.3% and 91.6% (compound 0.001 µM); 97.8% and 92.2% and 75.9% (compound 0.00316 µM); 78.5% and 86.5% and 81.9% (compound 0.01 µM); 45.8% and 43% and 45.2% (compound 0.0316 µM); 14.7% and 26.1% and 10.6% (compound 0.1 µM). Besides, under “curve of compound”, the IC50 is 27.2 nM and 26.3 nM and 27.1 nM.

Turning to `CCc1c2c(nc3ccc(O)cc13)-c1cc3c(c(=O)n1C2)COC(=O)[C@]3(O)CC`, the viability, T/C is 45.6% and 49.3% and 46.8% (compound 0.00316 µM); 11.9% and 17.2% and 7.71% (compound 0.01 µM); 6.11% and 11.4% and 5.39% (compound 0.0316 µM); 2.46% and 4.85% and 2.38% (compound 0.1 µM); 1.23% and 4.28% and 1.04% (compound 0.316 µM); 1.89% and 0.95% and 0.4% (compound 1 µM). Further, where the note is “curve of compound”, the IC50 is less than 3.16 nM.

Consider `CNCc1ccc(-c2[nH]c3cc(F)cc4c3c2CCNC4=O)cc1`, for which the viability, T/C (compound 0.0316 µM) is 79.5% and 90.1% and 98.3%; the viability, T/C (compound 0.1 µM) is 85.4% and 95.9% and 92.6%; the viability, T/C (compound 0.316 µM) was 76.9% and 93.3% and 85.4%; the viability, T/C (compound 1 µM) is 77.7% and 96% and 82.6%; the viability, T/C (compound 3.16 µM) is 71.9% and 100% and 80.1%; the viability, T/C (compound 10 µM) is 56.2% and 82.1% and 66.5%. Moreover, under “curve of compound”, the IC50 is more than 10000 nM.

In the case of `COC1C(OC(N)=O)C(O)C(Oc2ccc3c(O)c(NC(=O)c4ccc(O)c(CC=C(C)C)c4)c(=O)oc3c2C)OC1(C)C` (stereo unspecified), the viability, T/C is, setting by setting: (compound 0.0316 µM) 83.6% [middle of 13 runs]; (compound 0.316 µM) 88.3% [middle of 13 runs]; (compound 3.16 µM) 89.8% [middle of 13 runs]; (compound 10 µM) 81.1% [middle of 13 runs]. In addition, where the note is “compound alone, run of 10/31/2023”, the IC50 is more than 10000 nM.
